Reference: the supplement of paper PMC10307832

Experiments:
Assay in all cases: relative viability (nuclei count vs DMSO), 5 days (fraction); higher = more cells survive
[1] = compound: C1CC(C1)(C(=O)O)C(=O)O.[NH2-].[NH2-].[Pt+2] [Carboplatin] + Cc1cc(Nc2cc(N3CCN(C)CC3)nc(Sc3ccc(NC(=O)C4CC4)cc3)n2)n[nH]1 [Tozasertib] (partner 0.1 µM)
Outline: (§1)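 After 5 days of treatment, lung cancer cells in 1536-well plates were fixed and stained in a single step (final 0.05% Triton X-100, 1% formaldehyde, 1 ug/ml Hoechst) and their nuclei counted on 4× images. Treatment had been applied by pin tool the day after seeding as one drug alone or as a fixed anchor-drug dose with five library-drug doses (not always all listed) in √10 steps. Relative viability is the nuclei count of treated wells divided by that of vehicle wells, and values are medians of duplicate plates.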

[2] = compound: NS(=O)(=O)OC[C@@H]1C[C@@H](n2ccc3c(N[C@H]4CCc5ccccc54)ncnc32)C[C@@H]1O [MLN4924] + CC(C)C[C@H](NC(=O)[C@H](Cc1ccccc1)NC(=O)c1cnccn1)B(O)O [Bortezomib] (partner 0.002 µM)
Outline: as §1

[3] = compound: NS(=O)(=O)OC[C@@H]1C[C@@H](n2ccc3c(N[C@H]4CCc5ccccc54)ncnc32)C[C@@H]1O [MLN4924] + CS(=O)(=O)N1CCN(Cc2cc3nc(-c4cccc5[nH]ncc45)nc(N4CCOCC4)c3s2)CC1 [Pictilisib] (partner 1 µM)
Outline: as §1

[4] = compound: NS(=O)(=O)OC[C@@H]1C[C@@H](n2ccc3c(N[C@H]4CCc5ccccc54)ncnc32)C[C@@H]1O [MLN4924] + O=C(c1cc(Cc2n[nH]c(=O)c3ccccc23)ccc1F)N1CCN(C(=O)C2CC2)CC1 [Olaparib] (partner 8 µM)
Outline: as §1

Cell Line | relative viability ([1]; first compound 0.08 µM) | relative viability ([1]; first compound 0.253 µM) | relative viability ([1]; first compound 0.8 µM) | relative viability ([1]; first compound 2.53 µM) | relative viability ([1]; first compound 8 µM) | relative viability ([2]; first compound 0.04 µM) | relative viability ([2]; first compound 0.1265 µM) | relative viability ([2]; first compound 0.4 µM) | relative viability ([2]; first compound 1.265 µM) | relative viability ([2]; first compound 4 µM) | relative viability ([3]; first compound 0.04 µM) | relative viability ([3]; first compound 0.1265 µM) | relative viability ([3]; first compound 0.4 µM) | relative viability ([3]; first compound 1.265 µM) | relative viability ([3]; first compound 4 µM) | relative viability ([4]; first compound 0.04 µM) | relative viability ([4]; first compound 0.1265 µM) | relative viability ([4]; first compound 0.4 µM) | relative viability ([4]; first compound 1.265 µM) | relative viability ([4]; first compound 4 µM)
ChaGo-K-1 | 0.231 | 0.224 | 0.215 | 0.213 | 0.192 | 0.535 | 0.53 | 0.436 | 0.337 | 0.278 | 0.515 | 0.434 | 0.369 | 0.258 | 0.272 | 0.279 | 0.205 | 0.227 | 0.153 | 0.147
EPLC-272H | 0.314 | 0.387 | 0.181 | 0.289 | 0.291 | 0.808 | 0.927 | 0.131 | 0.163 | 0.177 | 0.119 | 0.246 | 0.0811 | 0.135 | 0.135 | 0.352 | 0.176 | 0.0677 | 0.0995 | 0.105
LCLC-97TM1 | 0.235 | 0.292 | 0.249 | 0.192 | 0.212 | 0.403 | 0.46 | 0.107 | 0.046 | 0.0727 | 0.159 | 0.224 | 0.132 | 0.129 | 0.104 | 0.282 | 0.138 | 0.0947 | 0.0518 | 0.0597
CAL-12T | 0.338 | 0.289 | 0.329 | 0.413 | 0.382 | – | 0.971 | 0.659 | 0.369 | 0.22 | – | 0.41 | 0.299 | 0.237 | 0.156 | 0.667 | 0.538 | 0.249 | 0.17 | 0.13
NCI-H322M | 0.534 | 0.532 | 0.56 | 0.481 | 0.479 | 1.24 | 1.36 | 1.2 | 0.302 | 0.463 | 0.556 | 0.855 | 0.669 | 0.291 | 0.333 | 0.708 | 0.511 | 0.498 | 0.372 | 0.427
NCI-H2126 | 0.971 | 0.915 | 0.882 | 0.828 | 0.732 | 1.17 | 1.16 | 0.907 | 0.392 | 0.348 | 0.497 | 0.457 | 0.315 | 0.267 | 0.264 | 0.862 | 0.668 | 0.618 | 0.258 | 0.246
NCI-H596 | 0.985 | 0.98 | 0.907 | 0.77 | 0.491 | 1.08 | 1.02 | 0.709 | 0.885 | 0.974 | 0.419 | 0.448 | 0.273 | 0.379 | 0.349 | 0.815 | 0.626 | 0.436 | 0.595 | 0.557
LU99A | 0.282 | 0.279 | 0.248 | 0.258 | 0.212 | 0.873 | 0.316 | 0.407 | 0.159 | 0.138 | 0.334 | 0.299 | 0.226 | 0.153 | 0.137 | 0.18 | 0.136 | 0.16 | 0.108 | 0.0968
NCI-H1666 | 0.597 | 0.683 | 0.599 | 0.534 | 0.526 | 0.542 | 0.491 | 0.348 | 0.183 | 0.27 | 0.404 | 0.478 | 0.247 | 0.159 | 0.156 | 0.774 | 0.691 | 0.657 | 0.468 | 0.388
NCI-H520 | 0.5 | 0.433 | 0.438 | 0.389 | 0.459 | 0.424 | 0.272 | 0.341 | 0.131 | 0.141 | 0.322 | 0.402 | 0.359 | 0.276 | 0.238 | 0.273 | 0.217 | 0.24 | 0.151 | 0.167
